Data taken from PMC4278187 (The Journal of General Physiology, 2015).

Assays:
[1] = biological target: T1, ELIC (Erwinia chrysanthemi ligand-gated ion channel) (Dickeya chrysanthemi, UniProt P0C7B7); assay: macroscopic patch-clamp currents; assay type: cell-based
T1 sequence (P0C7B7 1-321): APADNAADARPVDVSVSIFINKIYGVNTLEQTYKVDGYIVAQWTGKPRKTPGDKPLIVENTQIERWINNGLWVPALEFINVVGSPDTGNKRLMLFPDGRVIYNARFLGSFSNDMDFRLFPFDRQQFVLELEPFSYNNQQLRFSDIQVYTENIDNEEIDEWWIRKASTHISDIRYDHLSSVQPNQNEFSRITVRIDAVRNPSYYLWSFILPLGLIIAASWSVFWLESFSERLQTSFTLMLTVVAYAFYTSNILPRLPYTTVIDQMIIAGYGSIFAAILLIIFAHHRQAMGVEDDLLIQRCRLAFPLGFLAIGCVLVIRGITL

[2] = biological target: T1, ELIC (Erwinia chrysanthemi ligand-gated ion channel); assay: whole-cell patch clamp concentration-response in HEK293 cells; assay type: cell-based

NCCS [cysteamine]
macroscopic patch-clamp currents (data not shown) [1]: in our macroscopic records, the rebound current (see below) was more prominent when responses were elicited by cysteamine

CCCN [propylamine]
EC50 [2]: 500 ± 100 µM
